Entries after “also recorded” stand apart in the source; their conditions may differ.

The subject of data set [1] is Mouse primary hepatocytes. The data set can be described thus: 14C-acetate incorporation into total lipids in mouse primary hepatocytes. To be noted: incorporation of 14C-acetate in primary mouse hepatocyte total lipids, 4 hours, 100 μM. The class given is cell-based. As to the method:
After perfusion, collagen digested liver cells were re-suspended in William's E media (11 mM glucose) (Gibco) supplemented with 10% fetal bovine serum (FBS) (Gibco), 2 mM L-glutamine (Gibco) and 1% Antibiotic-Antimycotic (Gibco) mixture and seeded in white opaque 96-well plates. On the following day, the cells were serum-starved for 2 hours, then treated with 0 μM, 0.1 μM, 0.3 μM, 0.5 μM, 1 μM, 3 μM, 10 μM, and 100 μM of Compound I-32, Compound I-1, Compound III-1 or Reference Compound (e.g., any of Compounds A-E or bempedoic acid) in the presence of ^14C-Acetate (1 μCi/ml, PerkinElmer). Each of Compound I-32, Compound I-1, Compound III-1, and Reference Compound was solubilized in 100% DMSO to a final concentration of 100 mM stock solution. In the experimental condition, the stock solution was diluted in serum free media (William's E media (11 mM glucose) (Gibco), 2 mM L-glutamine (Gibco) and 1% Antibiotic-Antimycotic) to yield the desired concentration of each compound. […] After 4 hours of treatment, the plates were washed two times with PBS (×1) and 100 μL microscint fluid (Microscint 0, part #601361) was added in each well. Plates were wrapped with aluminum foil and were shaken at 250 rpm for 2 h. After 2 h of shaking, ^14C incorporation into lipid was determined by liquid scintillation counting using a TopCount NXT Microplate Scintillation and Luminescence Counter (Perkin Elmer).
The effects of Compound I-32, Compound I-1, and Compound III-1 on mouse primary hepatocyte lipogenesis are represented in Table 13. Each Compound was assayed at a concentration of 0 μM (vehicle control), 0.1 μM, 0.3 μM, 0.5 μM, 1 μM, 3 μM, 10 μM, and 100 μM, unless otherwise noted. Statistically significant inhibition was determined by one-way ANOVA and Dennett's post hoc test where appropriate. […] IC50 values were determined by nonlinear regression. All statistical analyses were carried out using GraphPad Prism 8 software. A p-value of less than or equal 0.05 was considered significant.

For data set [2], the system named is human hematopoietic stem and progenitor cells. The data set can be described thus: Megakaryopoiesis and platelet production in cultured human hematopoietic stem and progenitor cells. Format: cell-based. To be noted: for Inhibition of megakaryocyte/platelet parameters after addition on day 6 of culture: 30 μM added on day 6; for Inhibition of megakaryopoiesis or platelet production (overall): 30 μM, cultured human HSPC; for CD41a+ mean fluorescence intensity (MFI), normalized / Normalized cell size (CD41a+) / CD41a CD42b+ counts (mature megakaryocytes), normalized to reference media control / CD41a+ cells (megakaryocytes), normalized to reference media control / Platelet counts, normalized to reference media control: added day 0, 8 days culture, I-32 and I-1 30 μM, ABT-737 6 μmol; for CD41a CD42b+ counts (mature megakaryocytes), normalized to reference media control / CD41a+ cells (megakaryocytes), normalized to reference media control / Platelet counts, normalized to reference media control: average±SD. The protocol:
Materials and Methods. Hematopoietic stem and progenitor cells, identified as viable CD45+ CD34+ cells, were isolated from peripheral blood of healthy donors by a method known in the art (see Ivetic N, Nazi I, Karim N et al. Producing megakaryocytes from a human peripheral blood source. Transfusion 2016; 56:1066-74). These isolated cells were then analyzed for purity before being expanded for four days using a commercial supplement to increase their cell population. After expansion, the cells were analyzed for purity, washed, and stimulated with a saturating concentration of thrombopoietin (20 ng/mL) and stem cell factor (50 ng/mL) to begin megakaryopoiesis. Compound I-32 and Compound I-1 were added at this timepoint at a concentration of 30 μM. The cells were then cultured for 8 days to develop into megakaryocytes and analyzed via flow cytometry to assess their number, maturity, and platelet count as defined by CD41a, CD42b and Calcein-AM expression. In addition, Compound I-32 and Compound I-1 were added to cells during the later stages of development (day 6) to assess their impact on maturation. ABT-737 (6 μmol) was used as a positive control and a DMSO vehicle control (<0.15% v/v) was the negative control. All counts are normalized to a media control (PBS) as a reference for basic cell growth.
Statistical analysis. Statistical analyses were carried out by comparing effects on measured parameters in comparison to vehicle control. A value of […] (One-way ANOVA multiple comparisons) was considered as significant.
Two isolations were performed from two healthy donors (2 males) and used to assess the impacts of Compound I-32 and Compound I-1. For one of the isolations, enough expanded hematopoietic stem and progenitor cells (HSPC) (Experiment 1) were obtained so that the addition of the compounds on day 6 was also performed along with the initial experiment. For the other experiment (Experiment 2) only an 8-day incubation was performed.
All results were normalized to a reference media (PBS) and Compound I-32 and Compound I-1 were compared to a vehicle control. Reference compound ABT-737 is a known BCL-2 inhibitor and was used a positive control. Results in FIGS. 25A-25J are the summary of a single experiments conducted in triplicates. No statistical inhibition was detected for Compound I-32 or Compound I-1 (p>0.05 one-way ANOVA).

Data set [3] deals with hepatic de novo lipogenesis. The data set can be described thus: Hepatic de novo lipogenesis (14C-glucose) in a murine model of NASH. The class given is in vivo, mouse. To be noted: 100 mg/kg as printed in the text (Table 6 prints 60 mg/kg).

For the compound `CC(C)(CCCCc1ccc(CCCCC(C)(C)C(=O)O)cc1)C(=O)O` [Compound I-1, 6-[4-(5-carboxy-5-methylhexyl)-phenyl]-2,2-dimethylhexanoic acid], the “% change from control at 100 μM ± SEM(n)” value in data set [1] is recorded as −84 ± 1.0 (n = 6) %. In addition, in data set [2], the “Inhibition of megakaryocyte/platelet parameters after addition on day 6 of culture” value was “no inhibition detected”; the “Inhibition of megakaryopoiesis or platelet production (overall)” value is given as “do not significantly affect; also recorded: do not inhibit”; the “CD41a+ mean fluorescence intensity (MFI), normalized” value is 109±10%; the “Normalized cell size (CD41a+)” value is given as 98±3%. In addition, in data set [2], the “CD41a CD42b+ counts (mature megakaryocytes), normalized to reference media control” value was 97±9%; the “CD41a+ cells (megakaryocytes), normalized to reference media control” value was 94±2%; the “Platelet counts, normalized to reference media control” value was 94±12%. For the same compound, the “Inhibition of liver lipogenesis” value in data set [3] came to 69%.

As to `CC(C)(CCCCc1cccc(CCCCC(C)(C)C(=O)O)c1)C(=O)O` [Compound I-32, 6-[3-(5-carboxy-5-methylhexyl)-phenyl]-2,2-dimethylhexanoic acid], the “% change from control at 100 μM ± SEM(n)” value in data set [1] is given as −82 ± 2.8 (n = 6) %. Besides, in data set [2], the “Inhibition of megakaryocyte/platelet parameters after addition on day 6 of culture” value was “no inhibition detected”; the “Inhibition of megakaryopoiesis or platelet production (overall)” value is listed as “do not significantly affect; also recorded: do not inhibit”; the “CD41a+ mean fluorescence intensity (MFI), normalized” value was determined as 110±11%; the “Normalized cell size (CD41a+)” value is given as 94±3%. For the same compound, in data set [2], the “CD41a CD42b+ counts (mature megakaryocytes), normalized to reference media control” value was found to be 106±17%; the “CD41a+ cells (megakaryocytes), normalized to reference media control” value is on record as 98±3%; the “Platelet counts, normalized to reference media control” value was determined as 134±34%. Also, the “Inhibition of liver lipogenesis” value in data set [3] is on record as around 50%.

Source of the values: US20240398737A1, “FUNCTIONALIZED LONG-CHAIN HYDROCARBON MONO- AND DI-CARBOXYLIC ACIDS AND DERIVATIVES THEREOF, AND THEIR USE FOR THE PREVENTION OR TREATMENT OF DISEASE” (Espervita Therapeutics, Inc., priority 2021, published 2024).
